In patent US20150099800A1, “NOVEL LIPASE INHIBITORS, REPORTER SUBSTRATES AND USES THEREOF” (Northeastern University, priority 2012, published 2015):
Read-outs that look alike come from different tables or passages of the source.

Legend:
[1] = target: T1, rFAAH (Rattus norvegicus, UniProt P97612); test: rFAAH coumarin substrate fluorescence assay; format: biochemical
T1 construct: His (N); made in house; host or cells: E. coli (cell line provided by the Cravatt group)
T1 sequence (P97612 30-579 limits assumed): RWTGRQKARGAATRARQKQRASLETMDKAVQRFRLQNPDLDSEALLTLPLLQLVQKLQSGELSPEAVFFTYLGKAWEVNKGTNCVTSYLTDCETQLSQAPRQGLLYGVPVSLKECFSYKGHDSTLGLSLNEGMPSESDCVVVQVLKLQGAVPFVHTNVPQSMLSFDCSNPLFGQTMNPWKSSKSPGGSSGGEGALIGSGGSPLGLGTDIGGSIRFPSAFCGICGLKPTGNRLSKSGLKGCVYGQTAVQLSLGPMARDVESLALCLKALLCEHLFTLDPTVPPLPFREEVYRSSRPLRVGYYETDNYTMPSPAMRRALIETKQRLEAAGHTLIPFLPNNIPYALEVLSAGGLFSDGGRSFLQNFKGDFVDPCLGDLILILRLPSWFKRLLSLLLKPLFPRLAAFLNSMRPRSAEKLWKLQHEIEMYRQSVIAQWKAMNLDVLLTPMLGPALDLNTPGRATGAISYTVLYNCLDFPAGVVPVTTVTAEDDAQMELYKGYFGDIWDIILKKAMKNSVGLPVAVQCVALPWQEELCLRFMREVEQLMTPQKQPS

[2] = tested on: Lipoprotein Lipase (Bacterial); format: biochemical, Pseudomonas sp.
[3] = target: T2, Pancreatic Lipase (Porcine) (Sus scrofa, UniProt P00591); format: biochemical
T2 construct: purchased Sigma L3126
T2 sequence (P00591 1-450): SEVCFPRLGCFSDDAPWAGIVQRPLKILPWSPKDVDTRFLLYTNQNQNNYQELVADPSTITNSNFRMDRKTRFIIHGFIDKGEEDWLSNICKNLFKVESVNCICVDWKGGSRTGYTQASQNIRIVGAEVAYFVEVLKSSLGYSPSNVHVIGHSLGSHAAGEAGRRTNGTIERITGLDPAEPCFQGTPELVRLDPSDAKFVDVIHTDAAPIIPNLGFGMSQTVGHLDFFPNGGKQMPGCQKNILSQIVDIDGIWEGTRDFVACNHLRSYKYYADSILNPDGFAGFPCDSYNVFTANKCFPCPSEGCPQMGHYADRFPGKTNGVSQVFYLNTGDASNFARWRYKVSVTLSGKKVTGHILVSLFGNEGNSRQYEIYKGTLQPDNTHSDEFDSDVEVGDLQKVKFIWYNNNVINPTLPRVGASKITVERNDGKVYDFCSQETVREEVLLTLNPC

[4] = target: T3, hDAGLα (Homo sapiens, UniProt Q9Y4D2)
T3 sequence (Q9Y4D2 1-1042): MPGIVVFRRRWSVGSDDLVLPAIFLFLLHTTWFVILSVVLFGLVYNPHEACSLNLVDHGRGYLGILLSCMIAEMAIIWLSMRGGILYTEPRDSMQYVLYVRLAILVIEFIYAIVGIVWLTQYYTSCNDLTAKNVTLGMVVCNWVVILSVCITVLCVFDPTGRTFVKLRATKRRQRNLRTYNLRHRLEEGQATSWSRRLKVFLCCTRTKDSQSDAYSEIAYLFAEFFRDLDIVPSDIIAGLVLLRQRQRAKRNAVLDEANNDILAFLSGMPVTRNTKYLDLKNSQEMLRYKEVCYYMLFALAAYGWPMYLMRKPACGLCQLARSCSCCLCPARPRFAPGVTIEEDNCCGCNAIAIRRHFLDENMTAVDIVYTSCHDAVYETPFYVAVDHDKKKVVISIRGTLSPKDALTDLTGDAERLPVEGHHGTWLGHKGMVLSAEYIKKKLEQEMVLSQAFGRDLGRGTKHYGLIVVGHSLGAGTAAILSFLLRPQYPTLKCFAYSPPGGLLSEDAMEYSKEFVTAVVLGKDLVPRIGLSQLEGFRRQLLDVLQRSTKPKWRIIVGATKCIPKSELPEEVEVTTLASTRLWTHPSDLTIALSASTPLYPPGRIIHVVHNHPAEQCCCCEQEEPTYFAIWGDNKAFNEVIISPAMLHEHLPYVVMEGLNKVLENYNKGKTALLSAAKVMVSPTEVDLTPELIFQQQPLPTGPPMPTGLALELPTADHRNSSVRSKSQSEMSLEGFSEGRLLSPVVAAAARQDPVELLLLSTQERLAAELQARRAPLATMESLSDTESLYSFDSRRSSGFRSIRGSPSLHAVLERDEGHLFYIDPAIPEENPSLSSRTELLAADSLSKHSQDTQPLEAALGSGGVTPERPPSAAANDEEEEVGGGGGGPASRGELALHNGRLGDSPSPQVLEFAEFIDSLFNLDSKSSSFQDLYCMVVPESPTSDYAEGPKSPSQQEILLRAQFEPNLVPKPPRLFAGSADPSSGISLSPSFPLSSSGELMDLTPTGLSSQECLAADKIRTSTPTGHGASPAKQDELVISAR

[5] = tested on: cannabinoid receptors; details: cited from earlier work
[6] = target: T4, MAGL (Homo sapiens, UniProt Q99685); details: cited from earlier work
T4 sequence (Q99685 1-303): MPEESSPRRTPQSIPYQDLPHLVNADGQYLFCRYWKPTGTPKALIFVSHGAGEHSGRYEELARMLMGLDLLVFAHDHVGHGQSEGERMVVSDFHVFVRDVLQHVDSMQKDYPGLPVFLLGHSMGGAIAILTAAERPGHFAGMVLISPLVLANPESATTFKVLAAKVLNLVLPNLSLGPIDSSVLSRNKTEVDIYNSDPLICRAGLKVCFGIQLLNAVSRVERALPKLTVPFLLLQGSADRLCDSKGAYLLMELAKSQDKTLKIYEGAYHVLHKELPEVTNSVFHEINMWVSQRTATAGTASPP

[7] = tested on: pancreatic and extrapancreatic fat necrosis; details: literature, cited from earlier work
[8] = tested on: FAAH; details: cited from earlier work
[9] = target: T3, hDAGLα; test: biochemical; details: read-out: hDAGLα inhibition at 10 μM TLC (with Triton X-100) (%), 10 μM; 0.05% Triton X-100 present
[10] = tested on: DAGL; details: cited from earlier work
[11] = 10 μM, 0.05% Triton X-100 present
[12] = intraperitoneal (IP) injections

CCCCCCCCCCCC(CC1OC(=O)C1CCCCCC)OC(=O)C(NC=O)C(C)CC (stereo not drawn) [Compound 6]
rFAAH inhibition at 10 μM (%) ([1]; 10 μM): 28%
Lipoprotein Lipase (Bacterial) inhibition at 10 μM (%) ([2]; 10 μM): 86%
Pancreatic Lipase (Porcine) inhibition at 10 μM (%) ([3]; 10 μM): 99%
hDAGLα inhibition at 10 μM TLC (with Triton X-100) (%) [4, 11]: (78^A) %

CCCCCCCCCCC[C@@H](C[C@@H]1OC(=O)[C@H]1CCCCCC)OC(=O)[C@H](NC=O)[C@@H](C)CC [Compound 7]
rFAAH inhibition at 10 μM (%) ([1]; 10 μM): 0%
Lipoprotein Lipase (Bacterial) inhibition at 10 μM (%) ([2]; 10 μM): 68%
Pancreatic Lipase (Porcine) inhibition at 10 μM (%) ([3]; 10 μM): 95%
hDAGLα inhibition at 10 μM TLC (with Triton X-100) (%) [4, 11]: (86^A) %

CCCCCCCCCCC[C@@H](C[C@@H]1OC(=O)[C@H]1CCCCCC)OC(=O)[C@H](CC(C)C)NC=O [Compound 3, tetrahydrolipstatin]
inhibition at 10 µM ([1]; read-out: rFAAH inhibition at 10 μM (%)): 6%
inhibition of bacterial lipoprotein lipase, FRET ([2]; preliminary studies): potent inhibition
IC50 ([2]; reporter compound (17), read-out: apparent IC50 with lipoprotein lipase, FRET assay): ~100 nM
inhibition of porcine triacylglycerol lipase, FRET ([3]; preliminary studies): potent inhibition
inhibition at 10 µM ([3]; read-out: Pancreatic Lipase (Porcine) inhibition at 10 μM (%)): 96%
inhibition of hDAGLα at 10 μM ([4]; 10 μM): complete inhibition
binding to the cannabinoid receptors, previous reports ([5]; literature): did not bind
inhibition of MAGL activity reported in the literature ([6]; literature): poor inhibitors
effect on concentration of free fatty acid in the blood [7, 12]: no effect
lowering of lipase activity in the blood [7, 12]: small effect
prevention of pancreatic and extrapancreatic fat necrosis ([7]; rodents): not effective
inhibition of FAAH activity reported in the literature ([8]; literature): poor inhibitors
inhibition at 10 µM [9]: 100%

O=C(Oc1ccc([N+](=O)[O-])cc1)N1CCC(C(O)(c2ccc3c(c2)OCO3)c2ccc3c(c2)OCO3)CC1 [JZL184]
rFAAH inhibition at 10 μM (%) [1]: 97^E %
Lipoprotein Lipase (Bacterial) inhibition at 10 μM (%) [2]: 36%
Pancreatic Lipase (Porcine) inhibition at 10 μM (%) [3]: 36%
hDAGLα inhibition at 10 μM TLC (with Triton X-100) (%) [4]: (37^B) %
inhibition of hDAGLα in radio-TLC assays [4]: poor inhibitors
effect on DAGL activity reported in the literature [10]: poor inhibitors
binding to the cannabinoid receptors, previous reports [5]: did not bind
inhibition of MAGL activity reported in the literature [6]: poor inhibitors
inhibition of FAAH activity reported in the literature [8]: poor inhibitors
